# From patent publication US5668134A, “Method for preventing or reducing photosensitivity and/or phototoxicity reactions to medications” (priority 1994, dated 1997)
# Where a name gives a salt, the structure may show the parent alone. Read-outs that look alike come from different tables or passages of the source.
# Legend:
# Escherichia coli = test: Activity in vitro and in clinical infections; assay type: cell-based
# Klebsiella pneumoniae = test: Activity in vitro and in clinical infections; assay type: cell-based
# [1] = test system: uncomplicated urinary tract infection; test: Example 4: evening dosing in uncomplicated urinary tract infection; assay type: in vivo, human; conditions: 200 mg at night for 3 nights
# Experimental: Patients with uncomplicated urinary tract infection were randomized to receive lomefloxacin HCl 200 mg taken at night for 3 nights and trimethoprim in a double-blind study.
# healthy male volunteers = conditions: lomefloxacin 400 mg BID, ciprofloxacin 750 mg BID, 14 days, UVA and UVA/UVB
# Experimental: This study was a single center, open label, multiple does, parallel, randomized study in healthy male volunteers.
# Drug administration began on day three. Single dermatological sites were chosen on each of the subjects to be the site which was to be evaluated over time. Twenty joules of radiation were administered to these sites on day 1, day 6 and day 16. Also, graded UVA-UVB exposure was performed on days 2, 7 and 16. The dermatological responses were scored at 1, 24 and 48 hours after each UVA exposure and at 24 hours after the combined UVA-UVB exposure. The definitions which were employed in interpreting this study were that photosensitivity was to be assessed by exposure duration associated with the smallest dermatological response score above zero, which was defined as the minimal erythrogenic dose after the UVA-UVB exposure. The photosensitivity and/or phototoxicity reaction was taken by definition to be an increase of equal to or greater than 1 unit in what was defined as a dermatological response over baseline values after the UVA exposure.
# [2] = in vivo
# patients [3] = test: Clinical trials, adverse events; assay type: in vivo, human
# From the text: Photosensitivity and/or phototoxicity reactions have been reported in clinical trials of lomefloxacin HCl to varying degrees. […] These photosensitivity and/or phototoxicity reactions have also occurred in subjects exposed to shaded or diffuse light, including exposure through glass.
# In clinical trials, most of the adverse events reported were mild to moderate in severity and transient in nature. During these clinical investigations, 2869 patients received MAXAQUIN®. In 2.6% of the patients, lomefloxacin was discontinued because of adverse events, primarily involving the gastrointestinal system (0.7%), skin (1.0%), or central nervous system (0.5%). The adverse clinical events with the highest incidence (≥1%) in patients, regardless of relationship to drug, were nausea (3.7%), headache (3.2%), photosensitivity (2.4%), dizziness (2.3%), and diarrhea (1.4%).
# [4] = test system: skin of healthy volunteers; test: Example 5: regression of delayed MEDUVA on plasma concentration
# From the text: The relationship between plasma concentration at time of irradiation and delayed MEDUVA was explored using regression analysis by testing the equality of the slopes of the regression of delayed MEDUVA on plasma concentration, obtaining estimates of the parameters of the regression line, and determining the correlation coefficient.
# [5] = Tissue or fluid to plasma ratios and blister fluid distribution after oral administration; assay type: in vivo, human; conditions: for Kp: oral, read-out: Mean Tissue or Fluid to Plasma Ratio
# From the text: The following are mean tissue or fluid to plasma ratios of lomefloxacin following oral administration.
# Equilibrium between the serum and blister fluid is achieved approximately two hours postdose, with a partition coefficient of 1.0 (blister fluid:serum). The concentration vs. time profiles in blister fluid following single dose administration are similar to those obtained at steady-state during a once daily dosing regimen.
# patients [6] = test: Example 3: multicenter comparative safety and efficacy study, photosensitivity; assay type: in vivo, human; conditions: 400 mg x 7 days
# Experimental: A double blind, randomized, parallel group, three-arm clinical study concerning the photosensitivity reactions caused by lomefloxacin HCl was the multicenter comparative safety and efficacy study which was conducted in Sweden. 400 mg of lomefloxacin HCl was given once a day (q.d.) for either three days or seven days. 703 patients were enrolled in this study, before newly-raised awareness of photosensitivity reactions associated with lomefloxacin HCl.
# However, about one year into the study, on Feb. 2, 1989, a letter was sent out to each of the study investigators regarding the possible risks of lomefloxacin HCl photosensitivity reactions. This information was again communicated to the study investigators at an Investigator's Meeting which was held on Jun. 8, 1989. The above-describedwarnings to study investigators apparently may have not been shared with the patients taking part in the study because photosensitivity rates for this study were reported as for […] as 10% for lomefloxacin HCl 400 mg×7 days.
# Haemophilus influenzae = test: Activity in vitro and in clinical infections; assay type: cell-based
# [7] = test system: gram-negative and gram-positive organisms; test: Bactericidal activity in vitro, MBC relative to MIC; assay type: cell-based
# [8] = Pharmacokinetics in renally impaired patients; assay type: in vivo, human; conditions: single doses
# skin = conditions: humans and animals; cited from earlier work
# [9] = Pharmacokinetics of lomefloxacin in humans (general description); assay type: in vivo, human
# Enterobacter cloacae = test: Activity in vitro and in clinical infections; assay type: cell-based
# [10] = test system: Staphylococcus saprophyticus; test: Activity in vitro and in clinical infections; assay type: cell-based
# Proteus mirabills = test: Activity in vitro and in clinical infections; assay type: cell-based
# Citrobacter diversus = test: Activity in vitro and in clinical infections; assay type: cell-based
# Serum protein binding = assay type: in vitro ADME
# [11] = regardless of relationship to drug
structure (smiles),measurement,setting,value
"CCn1cc(C(=O)O)c(=O)c2cc(F)c(N3CCNC(C)C3)c(F)c21 (racemic) [lomefloxacin HCl, monohydrochloride salt of (±)-1-ethyl-6,8-difluoro-1,4-dihydro-7-(3-methyl-1-piperazinyl)-4-oxo-3-quinolinecarboxylic acid]",activity against most strains,Escherichia coli,active against most strains
same,activity against most strains,Klebsiella pneumoniae,active against most strains
same,overall incidence of adverse events,[1],18%
same,photosensitivity reactions,[1],no photosensitivity reactions reported
same,clinical success in evaluable patients,[1]; 7-9 days posttreatment,98.1%
same,rate of photosensitivity reactions,healthy male volunteers,64%
same,time of peak plasma concentration following dosing,[2],approximately two
same,discontinued because of adverse events,patients [3]; 2869 patients,2.6%
same,"discontinued because of adverse events, central nervous system",patients [3]; 2869 patients,0.5%
same,"discontinued because of adverse events, gastrointestinal system",patients [3]; 2869 patients,0.7%
same,"discontinued because of adverse events, skin",patients [3]; 2869 patients,1.0%
same,incidence of photosensitivity,patients [3]; clinical trials,2.4%
same,photosensitivity and/or phototoxic reactions,patients [3]; patients exposed to sunlight or artificial ultraviolet light,Moderate to severe photosensitivity and/or phototoxic reactions have occurred
same,incidence of diarrhea,patients [3]; [11],1.4%
same,incidence of dizziness,patients [3]; [11],2.3%
same,incidence of headache,patients [3]; [11],3.2%
same,incidence of nausea,patients [3]; [11],3.7%
same,"correlation coefficient, plasma concentration vs delayed MEDUVA",[4]; in vivo,-0.72
same,slope of regression of delayed MEDUVA on plasma concentration,[4]; p<0.001,-4.99
same,Kp,[5]; Blister Fluid,1
same,Kp,[5]; Bronchial mucosa,2.1
same,Kp,[5]; Bronchial secretions,0.6
same,Kp,[5]; Prostatic tissue,2
same,Kp,[5]; Sputum,1.3
same,Kp,[5]; Urine,140
same,terminal half-life in blister fluid versus serum,[5]; inflammatory exudate fluid of blisters,same terminal half-life
same,time to equilibrium between serum and blister fluid,[5]; postdose,approximately two
same,photosensitivity rate,patients [6],10%
same,activity against most strains,Haemophilus influenzae,active against most strains
same,MBC relative to MIC,"[7]; generally, except staphylococci",≤ 2 factor
same,antibacterial activity,[7]; in vitro,bactericidal agent with in vitro activity against a wide range of gram-negative and gram-positive organisms
same,peak concentrations versus renal function,[8],not affected by the degree of renal function
same,photoreactions of quinolones,skin,"dose-dependent, drug-induced, UVA required photosensitivity reaction"
same,drug concentrations in many body tissues and fluids versus systemic circulation,[9]; 400 mg oral,comparable to or higher than drug concentrations in systemic circulation
same,absorption rate,[9]; healthy volunteers,rapidly absorbed
same,time to steady-state,[9]; healthy volunteers,by the end of the second day of dosing
same,number of metabolites identified,[9]; human urine,5 metabolites
same,dose excreted,"[9]; human, feces, oral dose, read-out: unchanged drug recovered in the feces",~10%
same,Tmax,"[9]; human, serum, healthy volunteers, after dosing, read-out: time to peak serum concentrations",1 to 2 h
same,metabolism,[9]; in vivo,minimally metabolized
same,route of elimination,[9]; in vivo,primarily eliminated by renal excretion
same,oral absorption,[9]; orally-administered,one hundred
same,activity against most strains,Enterobacter cloacae,active against most strains
same,activity against most strains,[10],active against most strains
same,activity against most strains,Proteus mirabills,active against most strains
same,activity against most strains,Citrobacter diversus,active against most strains
same,fraction unbound,Serum protein binding,~0.9
